As usually defined, the Tm is the temperature at the midpoint of the melting transition.

Test [1] concerns the target T1, p53 Y220C (Homo sapiens, UniProt P04637, C124S/C182S/C229S/C275S/C277S/M133L/N239Y/N268D/Y220C).
T1 construct: Human p53 WT, R273C, and Y220C (residues 94-312,; 6xHIS (TEV-cleavable) (cleaved yes); made in house; host or cells: E. coli BL21(DE3)
Nature of the test: Thermal stability assay (differential scanning fluorimetry) of p53 Y220C covalent adducts. It counts as binding. The settings on record: for Tm: p53 Y220C-compound adduct, p53 Y220C alone 33.0, p53 WT 41.5; for Δ Tm (thermal shift, stabilization of Y220C): relative to p53 Y220C alone. The method, then:
We synthesized a series of compounds, covalently labelled recombinant p53 (Y220C) with the compound, and performed differential scanning fluorimetry (DSF) assay to determine Tm relative to Y220C alone. We tested our lead compounds with the largest increase in Tm in homozygous p53 (Y220C) cell lines BxPC-3 and HCC1419 to determined how the covalent molecules alter p53 target gene expression. p53 WT MCF10A and p53 null Calu-1 cells were used as controls. The cell panel was treated with concentrations of compound ranging 100 nM-10 μM for 4 hr, 24 hr, and 48 hr. DMSO was used as a negative control, KG2 as a positive control, and Nutlin-3a as a positive control for p53 WT (FIG. 3D). We determined the differences in p53 target gene activation by performing qPCR on CDKN1A, MDM2, PUMA, BAX, NOXA, and used GAPDH as a negative control. We also performed a western blot on p53, p21, MDM2, and actin as a control to monitor the expected increase in protein levels of p21 and MDM2 protein. […] We immunoprecipitated p53 Y220C from the compound treated cell panel with Pab240 or IgG control, and western blot for p53 to determine the relative rescue of the native fold compared to DMSO treated cells.
(§1) Recombinant protein expression. Human p53 WT, R273C, and Y220C (residues 94-312, (C124S, M133L, C182S, C229S, N239Y, N268D, C275S, C277S) were expressed as 6×HIS fusion proteins in E. coli BL21(DE3). Lysates were first purified by Ni Sepharose High Performance (GE Healthcare) affinity chromatography. Proteins were then eluted from the resin and subject to Heparin (GE Healthcare) affinity chromatography. The elution fraction was then subjected to TEV protease cleavage overnight in 50 mM HEPES, 200 mM NaCl, and 1 mM DTT (pH 7.0). The protein was then passed over Heparin affinity resin again to remove free 6×HIS and TEV protease, concentrated, and stored in a buffer containing 50 mM HEPES, 200 mM NaCl, and 20% glycerol (pH 7.0).
Thermal Stability Assays. The thermal denaturation of p53 was monitored using fluorescence-based differential scanning fluorimetry assay. Purified p53 was incubated with excess covalent ligand overnight at 4° C. and purified by gel-filtration into 50 mM HEPES, 100 mM NaCl, and 15% glycerol (pH 7.0). 5 μM protein was prepared in assay buffer 50 mM HEPES and 100 mM NaCl (pH 7.0) with 2×SYPRO Orange (ThermoFisher). The plate was heated from 15° C. to 65° C. at a rate of 0.5° C./min. The fluorescence intensity was monitored at Ex/Em: 492/610 nm.

The test system of the next test is BxPC-3 (Y220C) cells. Nature of the test: Western blot of p21 and p53 in BxPC-3 (Y220C) cells. It counts as cell-based, human. The source says:
(§2) This is exciting preliminary evidence of successful re-animation of p53 (Y220C) with our lead compound KG2.
We have successfully synthesized several PEG linked versions of JQ1-KG1 bivalent molecules. We also treated BxPC-3 cells with free KG1 and JQ1 compounds as additional controls. We have performed western blots on p53, p21 and actin as a control (FIG. 4C).
(§3) Western blots and antibodies. Whole-cell extracts from MCF10A (Gift from Prof. Sourav Bandyopadhyay, UCSF), BxPC-3 (ATCC, CRL-1687), Calu-1 (ATCC, HTB-54) were prepared by lysing cells with lysis buffer containing 50 mM HEPES, 150 mM NaCl, 1 mM DTT, 10% glycerol, and 1% NP-40 (pH 7.0) in the presence of 1×cOmplete EDTA-free protease inhibitor cocktail (Roche). Whole-cell extracts were combined with 2×SDS-loading buffer for western blot analysis.
(§4) Western blots were performed with 10 μg protein and were resolved by SDS-PAGE on 4-12% BT gels (Invitrogen) at 150 V for 1 hr in MES buffer and transferred to nitrocellulose membranes, which were then incubated with primary antibodies at 4° C. overnight, followed by incubation with LI-COR IRDye anti-mouse and anti-rabbit secondary antibodies at room temperature for 1 hr. Bands were imaged on a LI-COR Odyssey scanner.
(§5) Antibodies for western blot detection were as follows: p53 (DO-1, SCBT), actin (8H10D10, CST), Rb phosS807/811 (85165, CST), and p21 (SX118, SCBT).

The target of test [2] is T1, p53 Y220C. Nature of the test: LC-MS analysis of p53 Y220C covalent labeling. The test is classed as binding. The settings on record: for label and reactivate p53 Y220C: recombinant protein and patient derived cell-lines; for covalent labeling of p53 (Y220C): recombinant protein, Cys-220. The method, then:
as §1
LC-MS analysis of p53 Y220C covalent labeling. Recombinant p53 Y220C (1 μM) in buffer containing 50 mM HEPES and 150 mM NaCl (pH 7.0) was treated with covalent compounds. The extent of covalent labeling was assessed by LC-MS (Waters Xevo G2-XS QTof, ACQUITY UPLC Protein BEH C4 Column, 300 Å, 1.7 μm, 2.1 mm×50 mm). Deconvolution of multiply charged ions was performed using Waters MassLynx software (version 4.1).

The subject of the next test is Calu-1 (null) cells. Nature of the test: Western blot of p21 in Calu-1 (p53 null) cells. The test is classed as cell-based, human. The settings on record: Calu-1, p53 null setting. The method, then:
as §2, §3, §4, §5
On the technique in general: In western blotting, separated proteins are transferred to a membrane and probed.

Where “and” joins values, the source holds several entries; their conditions need not be identical. Equal entries are not always repeated. Entries after “also recorded” stand apart in the source; their conditions may differ.

On to `C=C(CC)C(N)=O` [2-Ethylacrylamide], for which the “stabilization of Y220C (in words)” value at p53 Y220C [1] (DSF, in the assay tested) is listed as “did not stabilize”.
Take `C=CC(=O)n1cc(C=O)c2ccccc21` [KG37]: the Tm on p53 Y220C [1] (DSF) was determined as 34.5 °C. In addition, the “Δ Tm (thermal shift, stabilization of Y220C)” value at p53 Y220C [1] worked out at 1.5 °C.
`C=CC(=O)n1c2ccccc2c2cc(C(=O)NCCOCCOCCOCCOCCNC(=O)C[C@@H]3N=C(c4ccc(Cl)cc4)c4c(sc(C)c4C)-n4c(C)nnc43)ccc21` [JQ1PEG4KG1]: in the test on BxPC-3 (Y220C) cells (BxPC-3 (p53 Y220C) cells), the “p21 induction (Western blot)” value is reported as “strongly induce p21”. Besides, the “target p53 (Y220C) engagement (higher MW shift of p53 band)” value in the test on BxPC-3 (Y220C) cells (BxPC-3 cells, Western blot) is “evidence of target p53 (Y220C) engagement”. Also, the “cell death (lower actin staining)” value in the test with BxPC-3 (Y220C) cells (BxPC-3 cells, higher concentrations, 24 hours) is given as “extensive cell death”.
For the molecule `C=CC(=O)n1c2ccccc2c2cc(C=O)ccc21` [KG1], the Tm at p53 Y220C [1] (DSF) is 35 °C and 34.5 °C. Also, the “Δ Tm (thermal shift, stabilization of Y220C)” value on p53 Y220C [1] amounted to 1.5 °C. Moreover, at p53 Y220C [2], the “label and reactivate p53 Y220C” value is “label and reactivate”; the “covalent labeling of p53 (Y220C)” value is “reacts with p53 (Y220C); also recorded: covalently labels”. Moreover, the “p21 induction (Western blot)” value in the test with BxPC-3 (Y220C) cells (BxPC-3 (p53 Y220C) cells) was “little or no effects”.
Consider `C#CCNC(=O)c1cn(C(=O)C=C)c2ccccc12` [KG2], for which, at p53 Y220C [2], the “label and reactivate p53 Y220C” value is “label and reactivate”; the “covalent labeling of p53 (Y220C)” value is “labels p53 (Y220C)”. Moreover, in the test with BxPC-3 (Y220C) cells (BxPC-3 (p53 Y220C) cells), the “active concentration for p21 activation” value is listed as “active at μM concentrations” and the “p21 induction (Western blot)” value is “activation of p21 expression in Y220C cells to the same level as nutlin in WT p53 cells”. In addition, in the test on Calu-1 (null) cells, the “p21 induction (Western blot)” value is “does not show induction of p21”.
On to `Cc1sc2c(c1C)C(c1ccc(Cl)cc1)=N[C@@H](CC(=O)OC(C)(C)C)c1nnc(C)n1-2` [JQ1, (S)-tert-butyl 2-(4-(4-chlorophenyl)-2,3,9-trimethyl-6H-thieno[3,2-f][1,2,4]triazolo[4,3-a][1,4]diazepin-6-yl)acetate, reference compound], for which, in the test on BxPC-3 (Y220C) cells (BxPC-3 (p53 Y220C) cells), the “p21 induction (Western blot)” value was “modest activation of p21”.
